Structures can show the parent of a compound that is named as a salt.
Legend:
Assay type in all cases: biochemical
VEGFR2 kinase = target: T1, VEGFR2 kinase (Homo sapiens, UniProt P35968); test: VEGFR2 kinase assay (33P incorporation into Poly(Glu-Tyr)); settings: 500 nM test compound; read-out: Inhibition at 500 nM (%) VEGFr-2
T1 construct: recombinant N-terminal 6×His-tagged VEGFR2 kinase domain construct expressed by baculovirus; 6xHis (N); made in house
Protocol: Inhibition of VEGFR2 kinase activity by compounds disclosed herein was quantified by measuring the amount of [^33P] incorporated into the substrate in the presence of a test compound. Specifically, a reaction mixture with a final volume of 25 μL and containing 6.25 ng of VEGFR2 kinase (obtained by purifying recombinant N-terminal 6×His-tagged VEGFR2 kinase domain construct expressed by baculovirus), 5 μg of substrate (Poly (Glu-Tyr, 4:1, Sigma)), kinase reaction buffer (20 mM MOPS pH 7.0, 1 mM EDTA, 5% glycerol, 0.01% Brij-35, 0.1% β-mercaptoethanol, 1 mg/mL BSA, 100 μM ATP, 0.1 μCi per well [^33P]-γ-ATP (2,500-3,000 Ci/mmol), and 500 nM test compound (final concentration of DMSO was 4%) or 4% DMSO alone (as the control sample), was incubated at 30° C. for 30 minutes. The reaction was then stopped by adding 5 μL of 3% phosphoric acid solution. The resultant solution was transferred to and harvested by a filter plate (UniFilter-96 GF/B, PerkinElmer). The filter plate was then washed 20 times with d.d. H2O for 5 min followed by the addition of 30 μL of MicroScint™-20 Cocktail (PerkinElmer). After the plate was sealed, the retained radioactivity on the filter was counted using a TopCount scintillation detector (PerkinElmer). The percentage of inhibition rate of the test compound was calculated by dividing the retained radioactivity of the test sample with the retained radioactivity of the control sample and shown in Table 3.

Flt3 kinase = target: T2, Flt3 kinase (Homo sapiens, UniProt P36888); test: Flt3 kinase assay (33P incorporation into Poly(Glu-Tyr)); settings: 100 nM test compound; read-out: Inhibition at 100 nM (%) Flt-3
T2 construct: recombinant N-terminal 6×His-tagged Flt3 kinase domain construct expressed from baculovirus; 6xHis (N); made in house
T2 sequence (P36888 610-943 limits assumed): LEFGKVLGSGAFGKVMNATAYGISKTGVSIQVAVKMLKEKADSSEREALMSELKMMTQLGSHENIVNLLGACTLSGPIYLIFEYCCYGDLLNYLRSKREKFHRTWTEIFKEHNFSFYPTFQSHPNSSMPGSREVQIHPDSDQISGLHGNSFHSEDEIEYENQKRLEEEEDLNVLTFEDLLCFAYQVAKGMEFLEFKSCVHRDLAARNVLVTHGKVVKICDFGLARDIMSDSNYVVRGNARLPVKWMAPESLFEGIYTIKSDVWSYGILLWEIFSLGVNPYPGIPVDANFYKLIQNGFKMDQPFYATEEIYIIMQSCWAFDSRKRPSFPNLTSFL
Protocol: Inhibition of Flt3 kinase activity by compounds disclosed herein was quantified by measuring the amount of [^33P] incorporated into the substrate in the presence of a test compound. Briefly, a reaction mixture of 25 μL final volume containing 5 ng of Flt3 kinase (obtained by purifying recombinant N-terminal 6×His-tagged Flt3 kinase domain construct expressed from baculovirus), 5 μg of the substrate (Poly (Glu-Tyr, 4:1, Sigma)), kinase reaction buffer (20 mM MOPS pH 7.0, 1 mM EDTA, 5% glycerol, 0.01% Brij-35, 0.1% β-mercaptoethanol, 1 mg/mL BSA, 100 μM ATP, 0.1 μCi per well [^33P]-γ-ATP (2,500-3,000 Ci/mmol)), and a test compound (100 nM, diluted with 4% DMSO) or DMSO (as the control) was incubated at 30° C. for 30 minutes. The reaction was stopped by adding 5 μL of 3% phosphoric acid solution. The resultant reaction solution was then harvested onto a filter plate (UniFilter-96 GF/B, PerkinElmer), washed 20 times for 5 min with d.d. H2O, and followed by the addition of 30 μL of MicroScint™-20 Cocktail (PerkinElmer). The plate was then sealed and counted using a TopCount scintillation detector (PerkinElmer). The percentage of inhibition rate of the test compound was calculated by dividing the retained radioactivity of the test sample with the retained radioactivity of the control sample and shown in Table 3.

PDGFR-β kinase = target: T3, PDGFR-β kinase (Homo sapiens, UniProt P09619); test: PDGFR-β kinase assay (33P incorporation into Poly(Glu-Tyr)); settings: 500 nM test compound
T3 construct: recombinant N-terminal 6×His-tagged PDGFR-β kinase domain construct expressed by baculovirus; 6xHis (N); made in house
Protocol: Inhibition of PDGFR-β kinase activity by compounds disclosed herein was quantified by measuring the amount of [^33P] incorporated into the substrate in the presence of a test compound. Briefly, a reaction mixture of 25 μL final volume containing 55 ng of PDGFR-β kinase (obtained by purifying recombinant N-terminal 6×His-tagged PDGFR-β kinase domain construct expressed by baculovirus), 2.5 μg of the substrate (Poly (Glu-Tyr, 4:1, Sigma)), kinase reaction buffer (20 mM MOPS pH 7.0, 1 mM EDTA, 5% glycerol, 0.01% Brij-35, 0.1% β-mercaptoethanol, 1 mg/mL BSA, 2 mM MnCl2, 30 μM ATP, 0.1 μCi per well [^33P]-γ-ATP (2,500-3,000 Ci/mmol)), and a test compound (500 nM, diluted with 4% DMSO) or DMSO (as the control) was incubated at 30° C. for 30 minutes. The reaction was stopped by adding 5 μL of 3% phosphoric acid solution. The resultant reaction solution was then harvested onto a filter plate (UniFilter-96 GF/B, PerkinElmer), washed 20 times for 5 min with d.d. H2O, and followed by the addition of 30 μL of MicroScint™-20 Cocktail (PerkinElmer). The plate was then sealed and counted using a TopCount scintillation detector (PerkinElmer). The percentage of inhibition rate of the test compound was calculated by dividing the retained radioactivity of the test sample with the retained radioactivity of the control sample and shown in Table 3.

T1 sequence (P35968 834-1162 limits assumed): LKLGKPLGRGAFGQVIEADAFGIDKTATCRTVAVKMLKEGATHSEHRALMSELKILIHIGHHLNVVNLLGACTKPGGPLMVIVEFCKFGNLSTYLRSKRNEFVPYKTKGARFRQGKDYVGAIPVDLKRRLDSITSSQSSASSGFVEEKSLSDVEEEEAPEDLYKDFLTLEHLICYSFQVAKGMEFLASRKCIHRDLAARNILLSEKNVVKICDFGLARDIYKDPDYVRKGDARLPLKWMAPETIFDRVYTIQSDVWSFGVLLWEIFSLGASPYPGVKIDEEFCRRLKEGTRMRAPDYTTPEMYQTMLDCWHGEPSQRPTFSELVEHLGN
T3 sequence (P09619 600-962 limits assumed): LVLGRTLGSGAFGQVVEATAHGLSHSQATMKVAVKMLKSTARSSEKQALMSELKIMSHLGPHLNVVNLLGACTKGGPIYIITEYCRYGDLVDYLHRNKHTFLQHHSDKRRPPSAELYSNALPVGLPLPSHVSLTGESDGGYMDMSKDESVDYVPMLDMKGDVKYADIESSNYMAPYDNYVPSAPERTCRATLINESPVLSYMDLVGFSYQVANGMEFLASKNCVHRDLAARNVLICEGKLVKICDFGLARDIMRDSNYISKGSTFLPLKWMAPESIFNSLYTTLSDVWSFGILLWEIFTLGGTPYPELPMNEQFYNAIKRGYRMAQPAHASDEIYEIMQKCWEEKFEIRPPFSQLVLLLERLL

| SMILES | inhibition at 0.5 µM (VEGFR2 kinase) [%] | inhibition at 0.1 µM (Flt3 kinase) [%] | inhibition at 0.5 µM (PDGFR-β kinase) [%] |
| --- | --- | --- | --- |
| CCOC(=O)CCc1c(/C=C2\C(=O)Nc3ccc(-c4cc5ccccc5s4)cc32)[nH]c2c1C(=O)CCC2 [DCB-70069, (Z)-5-(benzo[b]thiophen-2-yl)-3-((3-(3-ethoxy-3-oxopropyl)-4-oxo-4,5,6,7-tetrahydro-1H-indol-2-yl)methylene)indolin-2-one] | 11.4 | 9.6 | 6.8 |
| O=C(O)CCc1c(/C=C2\C(=O)Nc3cc(-c4ccc(O)cc4)ccc32)[nH]c2c1C(=O)CCC2 [DCB-70075, (Z)-6-(4-hydroxyphenyl)-3-((3-carboxyethyl-4-oxo-4,5,6,7-tetrahydro-1H-indol-2-yl)methylene)indolin-2-one] | 99.6 | 63.5 | 94.1 |
| CCOC(=O)CCc1c(C=C2C(=S)Nc3cc(Br)ccc32)[nH]c2c1C(=O)CCC2 [DCB-70085, 6-bromo-3-((3-(3-ethoxy-3-oxopropyl)-4-oxo-4,5,6,7-tetrahydro-1H-indol-2-yl)methylene)indolin-2-thione] | 25.4 | 18.2 | 16.5 |
| CCOC(=O)CCc1c(/C=C2\C(=O)Nc3cc(-c4cc(F)cc(F)c4)ccc32)[nH]c2c1C(=O)CCC2 [DCB-70100, (Z)-6-(3,5-difluorophenyl)-3-((3-(3-ethoxy-3-oxopropyl)-4-oxo-4,5,6,7-tetrahydro-1H-indol-2-yl)methylene)indolin-2-one] | 17.7 | 12.5 | 20.3 |
| CCOC(=O)CCc1c(/C=C2\C(=O)Nc3ccc(NS(=O)(=O)c4ccccc4)cc32)[nH]c2c1C(=O)CCCC2 [DCB-70146, (Z)-ethyl 3-(4-oxo-2-((2-oxo-5-(phenylsulfonamido)indolin-3-ylidene)methyl)-1,4,5,6,7,8-hexahydrocyclohepta[b]pyrrol-3-yl)propanoate] | 59.7 | 59.9 | 19.7 |
| CCOC(=O)CCc1c(/C=C2\C(=O)Nc3cc(F)ccc32)[nH]c2c1C(=O)CCC2 [DCB-70122, (Z)-6-fluoro-3-((3-(3-ethoxy-3-oxopropyl)-4-oxo-4,5,6,7-tetrahydro-1H-indol-2-yl)methylene)indolin-2-one] | 84 | 82.2 | 64.3 |
| CCOC(=O)CCc1c(/C=C2\C(=O)Nc3cc(-c4ccc(O)c(O)c4)ccc32)[nH]c2c1C(=O)CCC2 [DCB-70077, (Z)-6-(3,4-dihydroxyphenyl)-3-((3-(3-ethoxy-3-oxopropyl)-4-oxo-4,5,6,7-tetrahydro-1H-indol-2-yl)methylene)indolin-2-one] | 89.7 | 58.4 | 66.3 |
| CCOC(=O)CCc1c(/C=C2\C(=O)Nc3ccc(NC(=O)Nc4ccc(OC)cc4)cc32)[nH]c2c1C(=O)CCC2 [DCB-70092, (Z)-5-(3-(4-methoxyphenyl)ureido)-3-((3-(3-ethoxy-3-oxopropyl)-4-oxo-4,5,6,7-tetrahydro-1H-indol-2-yl)methylene)indolin-2-one] | 30.2 | 22.5 | 14.1 |
| COc1cc(-c2ccc3c(c2)NC(=O)/C3=C\c2[nH]c3c(c2CCC(=O)O)C(=O)CCC3)ccc1O [DCB-70082, (Z)-6-(4-hydroxy-3-methoxyphenyl)-3-((3-carboxyethyl-4-oxo-4,5,6,7-tetrahydro-1H-indol-2-yl)methylene)indolin-2-one] | 95.8 | 35.1 | 41.4 |
| CN1CCN(S(=O)(=O)c2ccc3c(c2)/C(=C/c2[nH]c4c(c2CCC(=O)O)C(=O)CCC4)C(=O)N3)CC1 [DCB-70107, (Z)-5-(4-methylpiperazin-1-ylsunfonyl)-3-((3-carboxyethyl-4-oxo-4,5,6,7-tetrahydro-1H-indol-2-yl)methylene)indolin-2-one hydrochloride] | 48.8 | 10.8 | 8 |
| COc1cc(-c2ccc3c(c2)/C(=C/c2[nH]c4c(c2CCC(=O)O)C(=O)CCC4)C(=O)N3)ccc1O [DCB-70059, (Z)-5-(4-hydroxyl-3-methoxyphenyl)-3-((3-carboxyethyl-4-oxo-4,5,6,7-tetrahydro-1H-indol-2-yl)methylene)indolin-2-one] | 70.9 | 21.5 | 38.3 |
| CCOC(=O)CCc1c(/C=C2\C(=O)Nc3ccc(NC(=O)Nc4ccc(C)cc4)cc32)[nH]c2c1C(=O)CCC2 [DCB-70091, (Z)-5-(3-p-tolylureido)-3-((3-(3-ethoxy-3-oxopropyl)-4-oxo-4,5,6,7-tetrahydro-1H-indol-2-yl)methylene)indolin-2-one] | 24.6 | 11.1 | 13 |
| CCOC(=O)CCc1c(/C=C2\C(=O)Nc3cc(Br)ccc32)[nH]c2c1C(=O)CCC2 [DCB-70130, (Z)-ethyl 3-(2-((6-bromo-2-oxoindolin-3-ylidene)methyl)-4-oxo-4,5,6,7-tetrahydro-1H-indol-3-yl)propanoate] | 69.8 | 89.1 | 84.9 |
| Cc1ccc(NC(=O)Nc2ccc3c(c2)/C(=C/c2[nH]c4c(c2CCC(=O)O)C(=O)CCC4)C(=O)N3)cc1 [DCB-70093, (Z)-5-(3-p-tolylureido)-3-((3-carboxyethyl-4-oxo-4,5,6,7-tetrahydro-1H-indol-2-yl)methylene)indolin-2-one] | 70.1 | 44.7 | 40 |
| CCOC(=O)CCc1c(C=C2C(=S)Nc3ccccc32)[nH]c2c1C(=O)CCC2 [DCB-70083, 3-((3-(3-ethoxy-3-oxopropyl)-4-oxo-4,5,6,7-tetrahydro-1H-indol-2-yl)methylene)indolin-2-thione] | 23.3 | 16 | 11.6 |
| O=C(O)CCc1c(/C=C2\C(=O)Nc3ccc(S(=O)(=O)N4CCc5ccccc54)cc32)[nH]c2c1C(=O)CCC2 [DCB-70106, (Z)-5-(indolin-1-ylsulfonyl)-3-((3-carboxyethyl-4-oxo-4,5,6,7-tetrahydro-1H-indol-2-yl)methylene)indolin-2-one] | 46.4 | 10.2 | 36.3 |
